Patent US20020115642A1, “Beta-lactam antibiotics” (priority 2000, published 2002)
Converted amounts (≈) assume the structure as drawn. Where two headings read alike, the source gives them in different places. Each block holds one compound with its values, some of them ahead of it.

Assays:
Assay in all cases: Susceptibility testing (MIC, modified NCCLS method)
K. pneumoniae = type: cell-based, Klebsiella pneumoniae
Method: (§1) The NCCLS (National Committee for Clinical Laboratory Standards) method to determine MIC's of antimicrobial compounds was modified for high-throughput screening. All stocks of tested compounds were prepared in either water or in dimethylsulfoxide (DMSO), depending on the solubility. […] Briefly 20 2-fold serial dilutions of testing compounds from the highest concentration were made in a 384-well microtiter plate. Each well was inoculated with testing bacteria in broth to a final concentration of approximately 1-1.5×10^6 cells/ml. Bacterial growth was determined by the increase of optical density at 600 nm using a microplate reader (Tecan SpectraFluor Plus).

E. cloacae = type: cell-based, Enterobacter cloacae; conditions: E. cloacae ATCC 23355
Method: as §1

E. faecalis = type: cell-based, Enterococcus faecalis
Method: as §1

Staphylococcus aureus = type: cell-based
Method: as §1

P. aeruginosa = type: cell-based, Pseudomonas aeruginosa
Method: as §1

E. coli/TEM-1 = type: cell-based, Escherichia coli
Method: as §1

E. coli N = type: cell-based, Escherichia coli; conditions: E. coli (N)
Method: as §1

E. aerogenes = type: cell-based, Enterobacter aerogenes; conditions: E. aerogenes ATCC 35028
Method: as §1

[1] = Klebsiella pneumoniae, ATCC700721, K. pneumoniae ATCC 700721, read-out: MIC
[2] = Staphylococcus aureus, ATCC700260, S. aureus ATCC 700260, read-out: MIC
[3] = Staphylococcus aureus, ATCC700699, S. aureus ATCC 700699, read-out: MIC
[4] = Pseudomonas aeruginosa, ATCC21726, P. aeruginosa ATCC 21726, read-out: MIC
[5] = Escherichia coli, read-out: MIC

SMILES: O=C(Cc1cccs1)NC1C(=O)N2C(C(=O)O)C(COC(=O)Oc3cc(Cl)ccc3Oc3ccc(Cl)cc3Cl)=CS[C@H]12 (stereo partly drawn) [Compound 15, 3-((2-(2,4-Dichlorophenoxy)-5-chlorophenoxy)carbonyloxy)methyl-7-(2-thienylacetamido)-2-cephem-4-carboxylic acid]
MIC (K. pneumoniae; Klebsiella pneumoniae, ATCC51503, K. pneumoniae ATCC 51503, read-out: MIC): 1.96 µg/mL (≈ 2.93 µM) | MIC (K. pneumoniae; [1]): 1.96 µg/mL (≈ 2.93 µM) | MIC (E. cloacae; Enterobacter cloacae, ATCC23355, read-out: MIC): 0.25 µg/mL (≈ 0.373 µM) | MIC (E. faecalis; Enterococcus faecalis, ATCC49757, E. faecalis ATCC 49757, read-out: MIC): > 15.7 µg/mL | MIC (E. faecalis; Enterococcus faecalis, ATCC700802, E. faecalis ATCC 700802, read-out: MIC): 15.7 µg/mL (≈ 23.4 µM) | MIC (Staphylococcus aureus; Staphylococcus aureus, ATCC11632, S. aureus ATCC 11632, read-out: MIC): 610 ng/mL (≈ 0.911 µM) | MIC (Staphylococcus aureus; Staphylococcus aureus, ATCC33594, S. aureus ATCC 33594, read-out: MIC): 61 ng/mL (≈ 0.0911 µM) | MIC (Staphylococcus aureus; [2]): 61 ng/mL (≈ 0.0911 µM) | MIC (Staphylococcus aureus; [3]): 61 ng/mL (≈ 0.0911 µM) | MIC (P. aeruginosa; [4]): > 15.7 µg/mL | MIC (P. aeruginosa; Pseudomonas aeruginosa, ATCC29872, P. aeruginosa ATCC 29872, read-out: MIC): > 15.7 µg/mL | MIC (E. coli/TEM-1; Escherichia coli): 0.0031 µg/mL (≈ 0.00463 µM) | MIC (E. coli N; [5]): 0.008 µg/mL (≈ 0.0119 µM) | MIC (E. aerogenes; Klebsiella aerogenes, ATCC35028, read-out: MIC): 0.98 µg/mL (≈ 1.46 µM)

SMILES: O=C(Cc1cccs1)NC1C(=O)N2C(C(=O)O)=C(COC(=O)Oc3cc(Cl)ccc3Oc3ccc(Cl)cc3Cl)C[S+]([O-])[C@H]12 (stereo partly drawn) [Compound 17, 3-((2-(2,4-Dichlorophenoxy)-5-chlorophenoxy)carbonyloxy)methyl-7-(2-thienylacetamido)-1-oxo-3-cephem-4-carboxylic acid]
MIC (K. pneumoniae; [1]): 1.03 µg/mL (≈ 1.5 µM) | MIC (Staphylococcus aureus; [2]): 0.063 ng/mL (≈ 9.18e-05 µM) | MIC (Staphylococcus aureus; [3]): 0.25 ng/mL (≈ 0.000364 µM) | MIC (P. aeruginosa; [4]): > 16.5 µg/mL | MIC (E. coli/TEM-1; Escherichia coli): 0.032 µg/mL (≈ 0.0467 µM) | MIC (E. coli N; [5]): 0.016 µg/mL (≈ 0.0233 µM)

SMILES: O=C(Cc1cnc[nH]1)NC1C(=O)N2C(C(=O)O)=C(COc3cc(Cl)ccc3Oc3ccc(Cl)cc3Cl)CS[C@H]12 (stereo partly drawn) [Compound 31, 3-(2-(2,4-Dichlorophenoxy)-5-chlorophenoxy)methyl-7-[2-(3H-imidazol-4-yl)]-acetamido-3-cephem-4-carboxylic acid]
MIC (K. pneumoniae; K. pneumoniae ATCC 51503): 32 µg/mL (≈ 52.5 µM) | MIC (K. pneumoniae; K. pneumoniae ATCC 700721): 0.5 µg/mL (≈ 0.82 µM) | MIC (E. cloacae): 16 µg/mL (≈ 26.2 µM) | MIC (E. faecalis; E. faecalis ATCC 49757): 32 µg/mL (≈ 52.5 µM) | MIC (E. faecalis; E. faecalis ATCC 700802): >32 µg/mL | MIC (Staphylococcus aureus; S. aureus ATCC 11632): 16000 ng/mL (≈ 26.2 µM) | MIC (Staphylococcus aureus; S. aureus ATCC 33591): 16000 ng/mL (≈ 26.2 µM) | MIC (Staphylococcus aureus; S. aureus ATCC 33594): 63 ng/mL (≈ 0.103 µM) | MIC (Staphylococcus aureus; S. aureus ATCC 700260): 32000 ng/mL (≈ 52.5 µM) | MIC (Staphylococcus aureus; S. aureus ATCC 700699): 32000 ng/mL (≈ 52.5 µM) | MIC (P. aeruginosa; P. aeruginosa ATCC 21726): >32 µg/mL | MIC (P. aeruginosa; P. aeruginosa ATCC 29872): >32 µg/mL | MIC (E. coli/TEM-1; E. coli/Tem-1): 0.063 µg/mL (≈ 0.103 µM) | MIC (E. coli N): 0.25 µg/mL (≈ 0.41 µM) | MIC (E. aerogenes): 16 µg/mL (≈ 26.2 µM)

MIC (K. pneumoniae; K. pneumoniae ATCC 51503): >32 µg/mL | MIC (K. pneumoniae; K. pneumoniae ATCC 700721): >32 µg/mL | MIC (E. cloacae): >32 µg/mL | MIC (E. faecalis; E. faecalis ATCC 49757): 8 µg/mL (≈ 11.8 µM) | MIC (E. faecalis; E. faecalis ATCC 700802): >32 µg/mL | MIC (Staphylococcus aureus; S. aureus ATCC 11632): 63 ng/mL (≈ 0.0928 µM) | MIC (Staphylococcus aureus; S. aureus ATCC 33594): 63 ng/mL (≈ 0.0928 µM) | MIC (Staphylococcus aureus; S. aureus ATCC 700260): 250 ng/mL (≈ 0.368 µM) | MIC (Staphylococcus aureus; S. aureus ATCC 700699): >32000 ng/mL | MIC (P. aeruginosa; P. aeruginosa ATCC 21726): >32 µg/mL | MIC (P. aeruginosa; P. aeruginosa ATCC 29872): >32 µg/mL | MIC (E. aerogenes): >32 µg/mL
SMILES: O=C(Cc1cccs1)NC1C(=O)N2C(C(=O)O)=C(C=CCOc3ccc(Cl)cc3C(=O)Nc3ccc(Cl)c(Cl)c3)CS[C@H]12 (stereo partly drawn) [Compound 35, 3-{3-[4-Chloro-2-(3,4-dichloro-phenylcarbamoyl)-phenoxy]-propenyl}-7-(2-thiophene-acetmido)-3-cephem-4-carboxylic acid]

SMILES: NC(C(=O)NC1C(=O)N2C(C(=O)O)=C(COc3cc(Cl)ccc3Oc3ccc(Cl)cc3Cl)CSC12)c1ccccc1 (stereo not drawn) [Compound 38, 3-(2-(2,4-Dichlorophenoxy)-5-chlorophenoxy)methyl-7-(1-phenyl-2-aminoacetamido)-3-cephem-4-carboxylic acid]
MIC (K. pneumoniae; K. pneumoniae ATCC 51503): 1.98 µg/mL (≈ 3.12 µM) | MIC (E. cloacae): 1.98 µg/mL (≈ 3.12 µM) | MIC (E. faecalis; E. faecalis ATCC 49757): 15.9 µg/mL (≈ 25 µM) | MIC (E. faecalis; E. faecalis ATCC 700802): 15.9 µg/mL (≈ 25 µM) | MIC (Staphylococcus aureus; S. aureus ATCC 11632): 62 ng/mL (≈ 0.0976 µM) | MIC (Staphylococcus aureus; S. aureus ATCC 33594): 62 ng/mL (≈ 0.0976 µM) | MIC (Staphylococcus aureus; S. aureus ATCC 700260): 0.015 ng/mL (≈ 2.36e-05 µM) | MIC (Staphylococcus aureus; S. aureus ATCC 700699): 0.015 ng/mL (≈ 2.36e-05 µM) | MIC (P. aeruginosa; P. aeruginosa ATCC 21726): >15.9 µg/mL | MIC (P. aeruginosa; P. aeruginosa ATCC 29872): >15.9 µg/mL | MIC (E. coli/TEM-1; E. coli/Tem-1): 0.015 µg/mL (≈ 0.0236 µM) | MIC (E. coli N): 0.031 µg/mL (≈ 0.0488 µM) | MIC (E. aerogenes): 1.98 µg/mL (≈ 3.12 µM)

SMILES: Cc1nnc(SCC(=O)Nc2ncc(CC(=O)NC3C(=O)N4C(C(=O)O)=C(COc5cc(Cl)ccc5Oc5ccc(Cl)cc5Cl)CSC34)s2)s1 (stereo not drawn) [Compound 47]
MIC (K. pneumoniae; K. pneumoniae ATCC 51503): >32 µg/mL | MIC (K. pneumoniae; K. pneumoniae ATCC 700721): 8 µg/mL (≈ 9.83 µM) | MIC (E. cloacae): >32 µg/mL | MIC (E. faecalis; E. faecalis ATCC 49757): >32 µg/mL | MIC (E. faecalis; E. faecalis ATCC 700802): >32 µg/mL | MIC (Staphylococcus aureus; S. aureus ATCC 11632): >32000 ng/mL | MIC (Staphylococcus aureus; S. aureus ATCC 33591): 125 ng/mL (≈ 0.154 µM) | MIC (Staphylococcus aureus; S. aureus ATCC 33594): 63 ng/mL (≈ 0.0774 µM) | MIC (Staphylococcus aureus; S. aureus ATCC 700260): 8000 ng/mL (≈ 9.83 µM) | MIC (Staphylococcus aureus; S. aureus ATCC 700699): >32000 ng/mL | MIC (P. aeruginosa; P. aeruginosa ATCC 21726): >32 µg/mL | MIC (P. aeruginosa; P. aeruginosa ATCC 29872): >32 µg/mL | MIC (E. coli/TEM-1; E. coli/Tem-1): 0.25 µg/mL (≈ 0.307 µM) | MIC (E. coli N): 2 µg/mL (≈ 2.46 µM) | MIC (E. aerogenes): >32 µg/mL

SMILES: CC(=O)NC1C(=O)N2C(C(=O)O)=C(COc3cc(Cl)ccc3Oc3ccc(Cl)cc3Cl)CSC12 (stereo not drawn) [Compound 45]
MIC (K. pneumoniae; K. pneumoniae ATCC 51503): 8 µg/mL (≈ 14.7 µM) | MIC (K. pneumoniae; K. pneumoniae ATCC 700721): 2 µg/mL (≈ 3.68 µM) | MIC (E. cloacae): >32 µg/mL | MIC (E. faecalis; E. faecalis ATCC 49757): 16 µg/mL (≈ 29.4 µM) | MIC (E. faecalis; E. faecalis ATCC 700802): 32 µg/mL (≈ 58.8 µM) | MIC (Staphylococcus aureus; S. aureus ATCC 11632): >32000 ng/mL | MIC (Staphylococcus aureus; S. aureus ATCC 33594): 63 ng/mL (≈ 0.116 µM) | MIC (Staphylococcus aureus; S. aureus ATCC 700260): 63 ng/mL (≈ 0.116 µM) | MIC (Staphylococcus aureus; S. aureus ATCC 700699): 16000 ng/mL (≈ 29.4 µM) | MIC (P. aeruginosa; P. aeruginosa ATCC 21726): >32 µg/mL | MIC (P. aeruginosa; P. aeruginosa ATCC 29872): >32 µg/mL | MIC (E. aerogenes): >32 µg/mL
